Test results: patent US20060239913A1, “Peptide conjugate for magnetic resonance imaging” (priority 2003, published 2006)
Blank lines part the entries; values can stand above or below the molecule they belong to.

Legend:
[1] = system: atherosclerotic human sections (carotid artery); experiment: Ex vivo MRI and Gd quantification on human carotid endarterectomy sections; settings: 18 h incubation, 30 min washing
Protocol: Samples of fresh carotid artery were obtained from patients (n=21) undergoing carotid endarterectomy. Specimen consisted of the common carotid artery, as well as the internal and external carotid arteries. The excised plaques were rinsed in ice-cold saline and they were used in the 2-4 hours following surgery.
(§1) Finally, both rabbits and human atherosclerotic segments were cut in exactly 3.0 mm-thick sections, before their contact with the contrast medium and ex vivo imaging.
Ex vivo incubation—All the slices were deposited in a 24-wells culture plate. […] After pre-determined incubation periods of 1 h, 3 h or 18 h, the slices originating from the WHHL rabbits were either immediately imaged, or subjected to a washing during 30 min, 1 h or 3 h (n=3 for each condition) in 10.0 ml of Krebs-Ringer bicarbonate buffer, with the medium being replaced every hour. […]
Detection of the contrast media by ex vivo imaging and Gd quantification—For ex vivo MRI, the aortic slices were transferred in a new 24-wells plate and embedded in a semi-solid agar-agar gel (0.8% m/v) at room temperature. […] Finally, the gel was removed from the aortic segments and the Gd contained in each precisely weighed sample was quantified by ICP-MS after acidic mineralization.

[2] = system: ApoE-KO mice; experiment: Biodistribution assay in ApoE-KO mice (Gd by ICP-MS); assay type: in vivo
Protocol: (§2) Animals—the tissue distribution of compound B, when compared to Gd-DOTA, was performed in ApoE-KO mice in a 100% C57Bl/6 background. The animals were bred and housed in the Animal Experiment Unit of the Center of Molecular and Vascular Biology, Leuven, Belgium, and had free access to food and water.
(§3) ApoE-KO mice of 11-12 weeks were fed a cholesterol-rich Western-type diet (Tecklad, Madison, USA) for 4 months. This model of atherosclerosis was fully characterized: it contained extensive atherosclerotic plaques in the heart and aortic arch, where the plaques occupied 34% of the total lumen area. […] Biodistribution—After the diet period, animals were matched for sex and body weight. compounfd B or Gd-DOTA was administered intravenously via the tail vein (n=7/compound), at a clinical dose of 100 μmol Gd/kg. 60 min post-injection, the animals were anaesthetized and blood was obtained via eye bleeding. The mice were then subjected to a transcardiac perfusion with heparinized saline, in order to clear the intravascular compartment from any residual circulating contrast agent. Muscle and different organs (kidney, liver) were removed, as well as some artery specimens (aortic arch, carotid arteries, thoracic aorta, abdominal aorta and femoral artery). Finally, an aliquot of the blood sample was centrifuged and the Gd^3+ contained in all the collected samples was quantified by induced coupled plasma—mass spectrometry (ICP-MS) after acidic mineralization.

[3] = system: artery slices originating from Watanabe Heritable Hyperlipidemic rabbits; experiment: Ex vivo MRI and Gd quantification on WHHL rabbit artery slices; settings: for ex vivo MRI enhancement of the sections / amount of Gd in the sections by ICP-MS (mean value): after 1 h; for ex vivo MRI enhancement of the sections: 3 h or 18 h incubation; for amount of Gd in the sections by ICP-MS (mean value): 3 h or 18 h incubation at 5×10^−4 M Gd, no washing
Source text: Specimen preparation—Watanabe Heritable Hyperlipidemic rabbits (CAP, Olivet, France), which develop hypercholesterolemia and subsequent atherosclerosis due to a genetic deficiency of LDL receptors, were profoundly anaesthetized. After their sacrifice by exsanguination, the arterial tree, comprising the aortic arch with the beginning of the efferent arteries, as well as the thoracic aorta and the supra-renal abdominal aorta, was removed in one block and flushed with heparinized Krebs-Ringer Bicarbonate buffer (pH=7.4) in order to clean any remaining blood. The arterial specimen was then kept frozen at −20° C.; it was gently and extemporarily unfrozen for experimental purpose.
as §1
Ex vivo incubation—All the slices were deposited in a 24-wells culture plate. They were then incubated under stirring at 37° C., in 1.0 ml of Krebs-Ringer Bicarbonate buffer (pH=7.4), Gd-DOTA or compound B (at a Gd concentration of 5×10^−4 M). After pre-determined incubation periods of 1 h, 3 h or 18 h, the slices originating from the WHHL rabbits were either immediately imaged, or subjected to a washing during 30 min, 1 h or 3 h (n=3 for each condition) in 10.0 ml of Krebs-Ringer bicarbonate buffer, with the medium being replaced every hour. Regarding human samples, only the protocol which allowed the best differentiation between the compounds (i.e. an incubation period of 18 h, followed by a washing of 30 min) was applied. Afterwards, all the slices were drained and prepared for ex vivo imaging. Further the protocol was applied both regarding to lesional plaques and not lesional plaques specimens.
Specificity testing—To additionally test the specificity of the compound B uptake, we repeated the ex vivo 18 h-incubation with a new set of WHHL rabbit atherosclerotic slices which were previously incubated during 30 min with the hydroxamate peptide, at a 10 times higher concentration than COMPOUND B (i.e. 5×10^−3 M). The samples were subsequently washed during 30 min, as previously described.
Detection of the contrast media by ex vivo imaging and Gd quantification—For ex vivo MRI, the aortic slices were transferred in a new 24-wells plate and embedded in a semi-solid agar-agar gel (0.8% m/v) at room temperature. Images were performed on a 2.35 T MRI system (Biospec, Bruker, Germany), using a 7 cm inner diameter birdcage coil and a 200 mT/m insert gradient. A 3D T1w SNAP sequence was acquired with following parameters (TR/TE/α=20 ms/4.2 ms/75°, Matrix 256*256*16, resolution 235*175*1000 μm^3, duration 21′49″) to have a compromise between resolution, short duration for screening and sections localization. Finally, the gel was removed from the aortic segments and the Gd contained in each precisely weighed sample was quantified by ICP-MS after acidic mineralization.

[4] = Biodistribution assay in ApoE-KO mice (Gd by ICP-MS); assay type: in vivo; settings: C57Bl/6 background, mouse, plasma, iv, 100 μmol Gd/kg, i.v., read-out: half-life of elimination in plasma
Protocol: as §2, §3

[5] = biological target: T1, human MMP-2 (Homo sapiens, UniProt P08253); experiment: In vitro MMP inhibition assay (fluorimetric), MMP-2; assay type: biochemical; settings: for inhibitory activity on MMP-2 (in words): concentration of 1.0E-05 M; for % inhibition of control values: mean of duplicate
T1 construct: endogenous in cells; host or cells: human rheumatoid synovial fibroblast
T1 sequence (P08253 110-660): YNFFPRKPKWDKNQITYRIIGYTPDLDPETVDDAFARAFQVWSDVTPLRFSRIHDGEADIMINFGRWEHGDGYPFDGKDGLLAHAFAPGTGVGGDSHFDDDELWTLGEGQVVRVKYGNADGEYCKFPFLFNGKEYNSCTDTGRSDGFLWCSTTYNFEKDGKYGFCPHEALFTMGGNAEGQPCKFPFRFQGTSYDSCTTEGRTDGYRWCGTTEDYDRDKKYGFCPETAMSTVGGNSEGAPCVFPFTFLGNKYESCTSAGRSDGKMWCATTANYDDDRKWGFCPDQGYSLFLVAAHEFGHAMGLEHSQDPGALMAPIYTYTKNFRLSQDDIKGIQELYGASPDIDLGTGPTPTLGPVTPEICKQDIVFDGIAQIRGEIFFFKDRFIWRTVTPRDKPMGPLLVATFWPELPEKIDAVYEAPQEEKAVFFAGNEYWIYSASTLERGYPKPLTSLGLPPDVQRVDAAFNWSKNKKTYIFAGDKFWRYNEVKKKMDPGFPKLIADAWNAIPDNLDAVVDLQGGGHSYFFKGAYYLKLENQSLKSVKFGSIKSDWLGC
Protocol: The reaction was based on the formation of a fluorescent compound produced after MMP-cleavage of a substrate (see table 1 for experimental conditions). […] For the control sample, the contrast agent or the peptide was replaced by water. After a pre-incubation period of 30 min at 37° C., the fluorescence intensity was measured using a microplate reader (GeminiXS, Molecular Devices), in order to detect any compound interference with the fluorimetric assay (═F1). The enzymatic reaction was then initiated by the addition of the MMP substrate and the mixture was again incubated at 37° C. After a pre-determined time, a second fluorescent measurement was performed (═F2). The enzyme activity was determined by subtracting the signal F1 from F2, and the results were expressed as a percent inhibition of the control enzyme activity.

[6] = biological target: T2, human MMP-1 (Homo sapiens, UniProt P03956); experiment: In vitro MMP inhibition assay (fluorimetric), MMP-1; assay type: biochemical; settings: for inhibitory activity on MMP-1 (in words): concentration of 1.0E-05 M; for % inhibition of control values: mean of duplicate
T2 construct: endogenous in cells; host or cells: human rheumatoid synovial fibroblast
T2 sequence (P03956 100-469): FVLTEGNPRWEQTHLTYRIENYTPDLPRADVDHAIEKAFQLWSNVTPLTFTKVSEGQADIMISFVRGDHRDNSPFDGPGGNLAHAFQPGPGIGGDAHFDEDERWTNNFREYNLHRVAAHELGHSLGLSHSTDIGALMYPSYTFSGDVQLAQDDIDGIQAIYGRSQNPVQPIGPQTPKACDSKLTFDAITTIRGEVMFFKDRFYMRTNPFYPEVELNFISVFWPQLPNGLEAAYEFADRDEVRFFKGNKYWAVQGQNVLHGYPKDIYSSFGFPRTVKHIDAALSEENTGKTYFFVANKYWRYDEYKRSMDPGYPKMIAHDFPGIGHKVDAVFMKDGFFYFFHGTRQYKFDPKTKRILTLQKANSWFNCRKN
Protocol: (§4) The ability of compound B or the corresponding peptide hydroxamate to inhibit MMP-1, MMP-2 or MMP-3 activity was tested in vitro, on human enzymes. The reaction was based on the formation of a fluorescent compound produced after MMP-cleavage of a substrate (see table 1 for experimental conditions). Briefly, compound B or the peptide alone was added at 3 different concentrations to a buffer containing the MMP to test. For the control sample, the contrast agent or the peptide was replaced by water. After a pre-incubation period of 30 min at 37° C., the fluorescence intensity was measured using a microplate reader (GeminiXS, Molecular Devices), in order to detect any compound interference with the fluorimetric assay (═F1). The enzymatic reaction was then initiated by the addition of the MMP substrate and the mixture was again incubated at 37° C. After a pre-determined time, a second fluorescent measurement was performed (═F2). The enzyme activity was determined by subtracting the signal F1 from F2, and the results were expressed as a percent inhibition of the control enzyme activity.

[7] = biological target: T2, human MMP-1; settings: reported value; cited from earlier work
[8] = biological target: T3, human MMP-3 (Homo sapiens, UniProt P08254); settings: reported value; cited from earlier work
T3 construct: made in house; host or cells: Sf9 insect cells

[9] = biological target: T1, human MMP-2; settings: reported value; cited from earlier work
[10] = biological target: T3, human MMP-3; experiment: In vitro MMP inhibition assay (fluorimetric), MMP-3; assay type: biochemical; settings: for % inhibition of control values: mean of duplicate
Protocol: as §4

T3 sequence (P08254 100-477): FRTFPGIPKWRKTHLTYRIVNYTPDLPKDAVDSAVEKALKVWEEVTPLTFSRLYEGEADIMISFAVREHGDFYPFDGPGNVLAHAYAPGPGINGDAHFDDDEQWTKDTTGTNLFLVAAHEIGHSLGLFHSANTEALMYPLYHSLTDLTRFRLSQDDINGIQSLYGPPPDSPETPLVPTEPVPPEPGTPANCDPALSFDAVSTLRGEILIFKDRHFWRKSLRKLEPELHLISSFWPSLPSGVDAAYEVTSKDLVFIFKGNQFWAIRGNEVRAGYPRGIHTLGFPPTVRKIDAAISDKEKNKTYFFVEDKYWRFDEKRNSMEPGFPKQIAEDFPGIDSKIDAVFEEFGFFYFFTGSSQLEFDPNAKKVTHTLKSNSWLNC

half-life of elimination in plasma ([2]; i.v.): 15 min
amount of Gd in the sections by ICP-MS (mean value) [3]: 3-9 nmol/section
Molecule: O=C([O-])CN1CCN(CC(=O)[O-])CCN(CC(=O)O)CCN(CC(=O)[O-])CC1.[Gd+3] [Gd-DOTA, gadoteric acid]
enhancement of atherosclerotic human sections (MRI ex vivo and Gd quantification) [1]: not
Gd concentration after first washing step (mean value) ([3]; after 30 min washing): < 0.8 nmol/section
ex vivo MRI enhancement of the sections [3]: strong, but diffuse, enhancement

amount of Gd in the sections by ICP-MS (mean value) [3]: 5-11 nmol/section
inhibitory activity on MMP-2 (in words) [5]: effective
inhibitory activity on MMP-1 (in words) [6]: effective
Molecule: CC(C)C[C@@H](NC(=O)[C@@H]1CCCN1C(=O)CNC(=O)c1ccc(NC(=S)Nc2ccc(CCC(C(=O)O)N3CCN(CC(=O)O)CCN(CC(=O)O)CCN(CC(=O)O)CC3)cc2)cc1)C(=O)N[C@@H](C)C(=O)NO (some centres unmarked) [Compound B]
enhancement of atherosclerotic human sections (MRI ex vivo and Gd quantification) [1]: able to enhance
half-life [4]: 15 min
concentration in the arterial wall compared to Dotarem ([2]; artery specimen, 60 min post-injection, p<0.01): 3-3.5 times
ex vivo MRI enhancement after inhibition/competition with free peptide ([3]; 30 min preliminary incubation with free peptide 5×10^−3 M, then 18 h incubation, 30 min washing): very faint enhancement
ex vivo MRI enhancement of the sections [3]: strong but more delineated enhancement
mean Gd concentration after washing ([3]; incubated 3 h or 18 h, after 30 min and 1 h of washing): 1-8 nmol/section

% inhibition of control values ([5]; MMP-2, test concentration 1.0E−04 M): 94%
% inhibition of control values ([5]; MMP-2, test concentration 1.0E−05 M): 68%
% inhibition of control values ([5]; MMP-2, test concentration 1.0E−07 M): 5%
inhibitory activity on MMP-2 (in words) [5]: effective
% inhibition of control values ([6]; MMP-1, test concentration 1.0E−05 M): 46%
% inhibition of control values ([6]; MMP-1, test concentration 1.0E−07 M): 10%
% inhibition of control values ([6]; MMP-1, test concentration 1.0E−09 M): 9%
inhibitory activity on MMP-1 (in words) [6]: effective
inhibitory activity on MMP-3 (in words) [10]: no activity
% inhibition of control values ([10]; MMP-3, test concentration 1.0E−05 M): 8%
% inhibition of control values ([10]; MMP-3, test concentration 1.0E−07 M): 4%
% inhibition of control values ([10]; MMP-3, test concentration 1.0E−09 M): 0%
Molecule: p-aminobenzoyl-Gly-Pro-D-Leu-D-Ala-NHOH [Peptide]
IC50 [7]: 1 µM
IC50 [8]: 150 µM
IC50 [9]: 30 µM
